In PubChem BioAssay (NCI):
“And” between values parts separate entries of the source, which are not always exact repeats. Equal values may be shown once.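 Method: 48-hour compound exposure of cells in 96-well plates, five concentrations, linear interpolation of endpoints. The concentration for 50% growth inhibition is given as GI50. TGI: total growth inhibition.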

What was measured:
Assay in all cases: growth of human tumour cells (NCI), 48 h
CAKI-1 renal = system: CAKI-1 renal
LXFL 529 NSCLC = system: LXFL 529 NSCLC
SF-268 CNS = system: SF-268 CNS
HOP-92 NSCLC = system: HOP-92 NSCLC
DMS 273 small cell lung = system: DMS 273 small cell lung
MALME-3M melanoma = system: MALME-3M melanoma
KM12 colon = system: KM12 colon
SK-MEL-5 melanoma = system: SK-MEL-5 melanoma
HCT-116 colon = system: HCT-116 colon
DU-145 prostate = system: DU-145 prostate

SMILES | GI50 (CAKI-1 renal) [µM] | GI50 (LXFL 529 NSCLC) [µM] | TGI (LXFL 529 NSCLC) [µM] | GI50 (SF-268 CNS) | TGI (SF-268 CNS) | GI50 (HOP-92 NSCLC) | TGI (HOP-92 NSCLC) | GI50 (DMS 273 small cell lung) [nM] | TGI (DMS 273 small cell lung) [µM] | GI50 (MALME-3M melanoma) | GI50 (KM12 colon) | TGI (KM12 colon) | TGI (CAKI-1 renal) | GI50 (SK-MEL-5 melanoma) | TGI (SK-MEL-5 melanoma) | TGI (MALME-3M melanoma) | TGI (HCT-116 colon) | GI50 (HCT-116 colon) | GI50 (DU-145 prostate) | TGI (DU-145 prostate)
CC(C)CCCCCCCCCCCCC(=O)NCC(=O)NC1C(C)OC(Nc2ncnc3nc[nH]c23)C(O)C1O (centres undefined) | 0.00264 | 0.00336 | 0.515 | 0.000965 µM | 0.343 µM | 0.000324 µM | 0.00219 µM and 0.00491 µM | 0.0184 | 0.000586 | 0.00254 µM | 0.000442 µM | 0.208 µM | – | – | – | – | – | – | – | –
CC[O-].CC[O-].O=C([CH-]C(=O)c1ccccc1)CCCCCCC(=O)[CH-]C(=O)c1ccccc1.[Ti+4] | > 100 | > 100 | > 100 | > 100 µM | > 100 µM | > 100 µM | > 100 µM | > 100000 | > 100 | > 100 µM | > 100 µM | > 100 µM | > 100 µM | > 100 µM | > 100 µM | > 100 µM | – | – | – | –
CC(=O)NCc1c(C(N)=O)ncn1Cc1ccccc1 | – | – | > 100 | – | – | – | > 100 µM | – | > 100 | – | – | – | > 100 µM | – | > 100 µM | – | > 100 µM | – | – | –
CC(=O)OC1=C2CC[C@@H]3C(CC[C@@]4(C)C3CC[C@@H]4OC(C)=O)[C@@]2(C)CC(C#N)C1=O (some centres undefined) | – | – | 91.3 | – | > 100 µM | – | 54.9 µM | – | 74 | – | – | > 100 µM | – | – | 49.4 µM | > 100 µM | > 100 µM | – | – | –
O=C1/C(=C/c2ccc(F)cc2)CN(C(=O)C(Cl)Cl)C/C1=C\c1ccc(F)cc1 | 0.309 | – | – | 0.328 µM | 1.47 µM | 1.31 µM | 3.13 µM | – | – | 0.212 µM | 0.107 µM | 0.336 µM | 1.08 µM | 0.366 µM | 1.01 µM | 0.528 µM | 0.215 µM | 0.0673 µM | 0.671 µM | 1.74 µM
COc1ccc(-c2oc3c(OC)c(OC)c(OC)c(O)c3c(=O)c2OC)cc1O | < 0.01 | < 0.01 | > 100 | < 0.01 µM | 2.82 µM | – | – | – | 16.3 | – | 0.638 µM | 10.3 µM | > 100 µM | < 0.01 µM | 0.995 µM | – | – | – | – | –
CCc1[nH]nc(C(N)=O)c1N=NN(C)C | – | – | – | – | > 100 µM | – | > 100 µM | – | – | – | – | > 100 µM | > 100 µM | – | > 100 µM | > 100 µM | > 100 µM | – | – | > 100 µM
S=C1SCN(Cc2ccccc2)CN1Cc1ccccc1 | 7.19 | – | – | 9.55 µM | > 37.6 µM | 2.37 µM | 13.8 µM | – | – | 8.75 µM | 2.1 µM | 6.84 µM | 20.9 µM | 13.6 µM | 28.1 µM | 26.7 µM | 13 µM | 3.05 µM | 2.69 µM | 9.18 µM
O=S1(=O)c2cc(S(=O)(=O)n3ccnc3)ccc2NC2=NCCCN21 | – | – | > 100 | – | > 100 µM | – | > 100 µM | – | – | – | – | 89.5 µM | > 100 µM | – | 49.6 µM | > 100 µM | 85.8 µM | – | – | –
O=C(c1ccccc1)C1OC1C(=O)c1ccccc1 (centres undefined) | 2.82 | – | – | 2.93 µM | 19.1 µM | 1.96 µM | 6.09 µM | – | – | 3.24 µM | 3.51 µM | 11.9 µM | 23.4 µM | 3.46 µM | 14.3 µM | 66 µM | 11.4 µM | 2.09 µM | 1.32 µM | 4.28 µM
O=C(Nc1cn[nH]c1-c1nc2ccc(CN3CCOCC3)cc2[nH]1)NC1CC1 | – | – | – | 0.344 µM and 1.84 µM | 2.44 µM and > 10 µM | 0.365 µM and 1.06 µM | 2.6 µM and 8.8 µM | – | – | 3.05 µM and > 10 µM | 0.634 µM and 1.72 µM | 4.06 µM and > 10 µM | 15.2 µM and > 10 µM | 1.34 µM and 8.52 µM | 3.68 µM and > 10 µM | 8.32 µM and > 10 µM | 10.8 µM and > 10 µM | 0.208 µM and 0.473 µM | 2.6 µM and > 10 µM | 14.7 µM and > 10 µM
CN(C)CCN(C)C(=O)c1cccc2cccc(C(=O)O)c12 | – | – | > 100 | – | > 100 µM | – | > 100 µM | – | > 100 | – | – | – | – | – | > 100 µM | > 100 µM | > 100 µM | – | – | –
C/C(CC(C)(C)N1CC1)=N\NC(=O)Nc1cccc2ccccc12 | 3.73 | – | – | 3.72 µM | 16.2 µM | 1.65 µM | 6.99 µM | – | – | 4.08 µM | 4.13 µM | 15.7 µM | 13.2 µM | 3.19 µM | 12.2 µM | 18.8 µM | 11.5 µM | 3.32 µM | 3.07 µM | 9.85 µM
O=C(C=Nc1ccccc1S)c1ccco1 | – | 4.57 | 15.9 | – | 40.7 µM | – | – | – | 31.7 | – | – | 31.3 µM | 33.7 µM | – | 31.7 µM | 35.1 µM | 10.4 µM | – | – | –
C#Cc1cccc(NC(=O)c2cccc(NC(=O)CCl)c2)c1 | 31.5 | – | – | 23 µM | > 82.5 µM | 14.7 µM | 34.6 µM | – | – | 15.7 µM | 17.4 µM | 60.6 µM | > 82.5 µM | 15.1 µM | 28 µM | 41.5 µM | 44.6 µM | 7.98 µM | 29.2 µM | > 82.5 µM
O=C(c1ccc2ccccc2c1)c1c(C(F)(F)F)n([O-])c2cc(C(F)(F)F)ccc2[n+]1=O | 0.621 | – | – | 1.56 µM | 3.05 µM | 1.39 µM | 2.79 µM | – | – | 1.67 µM | 1.69 µM | 3.22 µM | 1.45 µM | 8.14 µM | – | 3.36 µM | 2.78 µM | 1.41 µM | 1.67 µM | 3.12 µM
COc1c(C)c(OC)c(C(=O)CC(C)C)c(OC)c1C | – | – | – | – | > 100 µM | – | > 100 µM | – | – | – | – | > 100 µM | > 100 µM | – | > 100 µM | > 100 µM | > 100 µM | – | – | > 100 µM
CCCS(=O)(=O)Nc1cccc(Nc2ncnc3cc(NC(=O)CCl)ccc23)c1Cl | 2.32 | – | – | 1.03 µM | 4.62 µM | 4.38 µM | 8.54 µM | – | – | 0.674 µM | 3.06 µM | 7.13 µM | 5.95 µM | 3.4 µM | 7.14 µM | 4.28 µM | 4.03 µM | 0.968 µM | 3.09 µM | 6.31 µM
